According to patent US20220296535A1, “Antibacterial Dosage Regime Using Cannabinoids” (Botanix Pharmaceuticals Limited, priority 2019, published 2022):

Test system: Staphylococcus aureus MRSA ATCC 43300 biofilm
Assay: Biofilm minimum inhibitory concentration (Biofilm MIC), crystal violet OD590
Type: cell-based
Protocol: The collaborator supplied sample as dry material. A stock solution at 10 mg/mL in neat DMSO (11.2 mg in 1.12 mL of DMSO) was prepared. The highest concentration tested in the assay was 128 μg/mL and 2% DMSO as a final concentration using 1/20 dilution to achieve these concentrations.
Bacteria (Staphylococcus aureus, ATCC 43300; MRSA) was cultured on Tryptic Soy Broth (TSB, BD, Cat. No. 211825) at 37° C. overnight, then it was diluted 1:100 in fresh TSB supplemented with 5% glucose. 100 μL were added across the 96-well of polystyrene (PS) (Corning; Cat. No. 3370) plate, leaving row H as media Control. Plates were incubated at 37° C. for 48 h to generate the biofilm. The plates were prepared in duplicate.
The antibiotic controls and CBD were serially diluted in TSB with 5% glucose two-fold across the wells of polystyrene (PS) 96-well plates (Corning; Cat. No. 3370), plated in duplicate. All plates had flat bottom wells and were covered with low-evaporation lids.
48 h after incubation, bacteria plates were carefully washed three times with 200 μL/well of saline solution (0.9% NaCl, Baxter Healthcare; Cat. No. AHF7124) using manual pipette to remove the planktonic cells but leave the biofilm adhered to the plate wells. Then, 100 μL of diluted controls and CBD were transferred into the washed plates containing the biofilm. Then, these plates were incubated at 37° C. for 24 h.
Next day, plates were washed three times with saline solution, then fixed with 100 μL/well of 99% methanol for 15 minutes. Once the biofilm was fixed, 100 μL/well 0.1% Crystal Violet Stain (Sigma; Cat No. C0775-25G) was added for 20 minutes and used as indicator of biofilm formation, followed by three times washing and dry well. To dissolve the crystal violet, 150 μL/well of methanol was added to allow for biofilm MIC analysis.
The biofilm formation was determined by optical density read at 590 nm (OD590). The percentage of biofilm formation was evaluated comparing the average, standard deviation and percentage of confidence of the media control (Row H) against the rest of the plate.
Analysis was performed using Microsoft Excel.

For C=C(C)C1CCC(C)=CC1c1c(O)cc(CCCCC)cc1O (centres unmarked) [Cannabidiol, 2-[3-methyl-6-(1-methylethenyl)-2-cyclohexen-1-yl]-5-pentyl-1,3-benzenediol], the “biofilm MIC” value was 1 to 2 µg/mL, the “biofilm MIC relative to standard vegetative cell MIC” value was “approximately four-fold” and the “inhibition of 48 h biofilm formation” value (at 2 and 4 μg/mL) was “up to 75%”. For the same compound, the “Biofilm MIC (TSB + 5% Gluc) 07/112/18” value (first biological replicate, two technical replicates, ≥70% inhibition OD590) was 4 µg/mL and the “Biofilm MIC (TSB + 5% Gluc) 14/112/18” value (second biological replicate, two technical replicates, ≥70% inhibition OD590) was 2 µg/mL.
